According to US10287297B2, “Epoxyazulene derivatives useful for treating cancer and diabetes” (The United States of America, as represented by the …, priority 2015, dated 2019):

What was measured:
Format in all cases: cell-based
[1] = test system: HCC-2998; assay: NCI 60 cell assay, colon HCC-2998; conditions: Homo sapiens, 48 h; HCC-2998 (colon); drug exposure two days, SRB endpoint; read-out: GI-50 value
Protocol: (§1) Samples were tested in the standard National Cancer Institute 60-cell line protocol. First, they were tested against all 60 cell lines in a single final concentration of 10 micromolar. Then, they were separately tested in five 10-fold dilutions. The drug exposure was two days, with an SRB endpoint.

[2] = test system: SW-620; assay: NCI 60 cell assay, colon SW-620; conditions: Homo sapiens, 48 h; SW-620 (colon); drug exposure two days, SRB endpoint; read-out: GI-50 value
Protocol: as §1

[3] = test system: CAKI-1; assay: NCI 60 cell assay, renal CAKI-1; conditions: Homo sapiens, 48 h; CAKI-1 (renal); drug exposure two days, SRB endpoint; read-out: GI-50 value
Protocol: as §1

[4] = test system: UACC-62; assay: NCI 60 cell assay, melanoma UACC-62; conditions: Homo sapiens, 48 h; UACC-62 (melanoma); drug exposure two days, SRB endpoint; read-out: GI-50 value
Protocol: as §1

[5] = test system: NCI-H322M; assay: NCI 60 cell assay, NSCLC NCI-H322M; conditions: Homo sapiens, 48 h, drug exposure two days, SRB endpoint, read-out: GI-50 value
Protocol: as §1

[6] = test system: SK-MEL-28; assay: NCI 60 cell assay, melanoma SK-MEL-28; conditions: Homo sapiens, 48 h; SK-MEL-28 (melanoma); drug exposure two days, SRB endpoint; read-out: GI-50 value
Protocol: as §1

[7] = test system: NCI-H226; assay: NCI 60 cell assay, NSCLC NCI-H226; conditions: Homo sapiens, 48 h, drug exposure two days, SRB endpoint, read-out: GI-50 value
Protocol: as §1

[8] = test system: MCF7; assay: NCI 60 cell assay, breast MCF7; conditions: Homo sapiens, 48 h, drug exposure two days, SRB endpoint, read-out: GI-50 value
Protocol: as §1

[9] = test system: SNB-19; assay: NCI 60 cell assay, CNS SNB-19; conditions: Homo sapiens, 48 h; SNB-19 (CNS); drug exposure two days, SRB endpoint; read-out: GI-50 value
Protocol: as §1

[10] = test system: SF-539; assay: NCI 60 cell assay, CNS SF-539; conditions: Homo sapiens, 48 h; SF-539 (CNS); drug exposure two days, SRB endpoint; read-out: GI-50 value
Protocol: as §1

[11] = test system: U251; assay: NCI 60 cell assay, CNS U251; conditions: Homo sapiens, U-251, 48 h, drug exposure two days, SRB endpoint, read-out: GI-50 value
Protocol: as §1

[12] = test system: SR; assay: NCI 60 cell assay, leukemia SR; conditions: Homo sapiens, 48 h, drug exposure two days, SRB endpoint, read-out: GI-50 value
Protocol: as §1

[13] = test system: HS 578T; assay: NCI 60 cell assay, breast HS 578T; conditions: Homo sapiens, 48 h; HS 578T (breast); drug exposure two days, SRB endpoint; read-out: GI-50 value
Protocol: as §1

[14] = test system: DU-145; assay: NCI 60 cell assay, prostate DU-145; conditions: Homo sapiens, 48 h; DU-145 (prostate); drug exposure two days, SRB endpoint; read-out: GI-50 value
Protocol: as §1

[15] = test system: MDA-MB-468; assay: NCI 60 cell assay, breast MDA-MB-468; conditions: Homo sapiens, 48 h; MDA-MB-468 (breast); drug exposure two days, SRB endpoint; read-out: GI-50 value
Protocol: as §1

[16] = test system: ACHN; assay: NCI 60 cell assay, renal ACHN; conditions: Homo sapiens, 48 h, drug exposure two days, SRB endpoint, read-out: GI-50 value
Protocol: as §1

[17] = test system: SK-OV-3; assay: NCI 60 cell assay, ovarian SK-OV-3; conditions: Homo sapiens, 48 h; SK-OV-3 (ovarian); drug exposure two days, SRB endpoint; read-out: GI-50 value
Protocol: as §1

[18] = test system: HOP-62; assay: NCI 60 cell assay, NSCLC HOP-62; conditions: Homo sapiens, 48 h; HOP-62 (NSCLC); drug exposure two days, SRB endpoint; read-out: GI-50 value
Protocol: as §1

[19] = test system: M14; assay: NCI 60 cell assay, melanoma M14; conditions: Homo sapiens, 48 h, drug exposure two days, SRB endpoint, read-out: GI-50 value
Protocol: as §1

[20] = test system: NCI-H460; assay: NCI 60 cell assay, NSCLC NCI-H460; conditions: Homo sapiens, 48 h, drug exposure two days, SRB endpoint, read-out: GI-50 value
Protocol: as §1

[21] = test system: OVCAR-5; assay: NCI 60 cell assay, ovarian OVCAR-5; conditions: Homo sapiens, 48 h; OVCAR-5 (ovarian); drug exposure two days, SRB endpoint; read-out: GI-50 value
Protocol: as §1

[22] = test system: MDA-MB-435; assay: NCI 60 cell assay, melanoma MDA-MB-435; conditions: Homo sapiens, 48 h; MDA-MB-435 (melanoma); drug exposure two days, SRB endpoint; read-out: GI-50 value
Protocol: as §1

[23] = test system: NCI-H23; assay: NCI 60 cell assay, NSCLC NCI-H23; conditions: Homo sapiens, 48 h, drug exposure two days, SRB endpoint, read-out: GI-50 value
Protocol: as §1

[24] = test system: MOLT-4; assay: NCI 60 cell assay, leukemia MOLT-4; conditions: Homo sapiens, 48 h; MOLT-4 (leukemia); drug exposure two days, SRB endpoint; read-out: GI-50 value
Protocol: as §1

[25] = test system: UACC-257; assay: NCI 60 cell assay, melanoma UACC-257; conditions: Homo sapiens, 48 h; UACC-257 (melanoma); drug exposure two days, SRB endpoint; read-out: GI-50 value
Protocol: as §1

[26] = test system: MALME-3M; assay: NCI 60 cell assay, melanoma MALME-3M; conditions: Homo sapiens, 48 h; MALME-3M (melanoma); drug exposure two days, SRB endpoint; read-out: GI-50 value
Protocol: as §1

[27] = test system: OVCAR-4; assay: NCI 60 cell assay, ovarian OVCAR-4; conditions: Homo sapiens, 48 h; OVCAR-4 (ovarian); drug exposure two days, SRB endpoint; read-out: GI-50 value
Protocol: as §1

[28] = test system: SF-268; assay: NCI 60 cell assay, CNS SF-268; conditions: Homo sapiens, 48 h; SF-268 (CNS); drug exposure two days, SRB endpoint; read-out: GI-50 value
Protocol: as §1

[29] = test system: T-47D; assay: NCI 60 cell assay, breast T-47D; conditions: Homo sapiens, T47D, 48 h; T-47D (breast); drug exposure two days, SRB endpoint; read-out: GI-50 value
Protocol: as §1

[30] = test system: HT29; assay: NCI 60 cell assay, colon HT29; conditions: Homo sapiens, HT-29, 48 h, drug exposure two days, SRB endpoint, read-out: GI-50 value
Protocol: as §1

[31] = test system: SK-MEL-5; assay: NCI 60 cell assay, melanoma SK-MEL-5; conditions: Homo sapiens, 48 h; SK-MEL-5 (melanoma); drug exposure two days, SRB endpoint; read-out: GI-50 value
Protocol: as §1

[32] = test system: OVCAR-3; assay: NCI 60 cell assay, ovarian OVCAR-3; conditions: Homo sapiens, 48 h; OVCAR-3 (ovarian); drug exposure two days, SRB endpoint; read-out: GI-50 value
Protocol: as §1

What does the source list for `CC1=C2[C@@H](CC1)[C@]1(C)O[C@@](C(C)C)(C[C@H]1OC(=O)[C@H](C)O)[C@H]2OC(=O)C=Cc1ccccc1` [(Il), (3aR,4S,5R,7R,8S)-5-(((S)-2-hydroxypropanoyl)oxy)-7-isopropyl-1,4-dimethyl-2,3,3a,4,5,6,7,8-octahydro-4,7-epoxyazulen-8-yl cinnamate]?
GI50 [1]: 14 µM; GI50 [2]: 15 µM; GI50 [3]: 7.2 µM; GI50 [4]: 13 µM; GI50 [5]: 19 µM; GI50 [6]: 16 µM; GI50 [7]: 11 µM; GI50 [8]: 10 µM; GI50 [9]: 18 µM; GI50 [10]: 15 µM; GI50 [11]: 14 µM; GI50 [12]: 13 µM; GI50 [13]: 98 nM; GI50 [14]: 17 µM; GI50 [15]: 11 µM; GI50 [16]: 90 nM; GI50 [17]: 15 µM; GI50 [18]: 15 µM; GI50 [19]: 13 µM; GI50 [20]: 15 µM; GI50 [21]: 18 µM; GI50 [22]: 15 µM; GI50 [23]: 14 µM; GI50 [24]: 10 µM; GI50 [25]: 15 µM; GI50 [26]: 15 µM; GI50 [27]: 12 µM; GI50 [28]: 1300 nM; GI50 [29]: 7.2 µM; GI50 [30]: 14 µM; GI50 [31]: 13 µM; GI50 [32]: 13 µM
